Data set [1] in a line: Plasma levels of βBA and AKBA via os in patients (Gerbeth K et al. 2011). In kind it is in vivo, humans.
A short description of data set [2]: Plasma and brain levels of βBA and AKBA via os in mice (Gerbeth K et al. 2013). The class given is in vivo. The source says:
βBA appears not to undergo blood-brain barrier. According to the data of Gerbeth K et al. 2013, brain levels of AKBA were very low, resulting 0.4 per AKBA in the brain/plasma ratio (but 0.81 according to Weber C C et al. 2006). In contrast, the § BA concentration in the brain was even higher than that found in the blood with 32% increase (See Table 1).

The nature of data set [3]: Blood concentration of βBA by oral-sublingual vs oral-gastro-intestinal route (FIG. 1). The class given is in vivo, humans. The method, then:
FIG. 1. Blood Concentration of βBA Administered by Oral-Sublingual Route Vs. Oral-Gastro-Intestinal Route. • ? 43 a, 58 kg BW • βBA administered both via os and sublingual: 10 mg=172.4 ng/g. • Maximum blood concentration via sublingual route: 95 ng/ml. • Maximum blood concentration via os: 52 ng/ml. • Δos/plasma: 1.82. • Note • 1. […] The explanation is that βBA is an excellent vasodilator, probably through the release of NO nitric oxide [Wang M et al. 2015], synergistic with the other compounds of the composition or association object of the present invention. • 2. […] Note that with the present experiment, the Δos/plasma ratio of 1.82 was the same as that found by Sterk V et al. 2004 (Table 1).

In data set [4] the test system is NF-kB. Description: NF-kB in PFC and HIPP of mice treated with Aβ icv, Western blotting (FIG. 10). The following applies: after 7 days. The class given is in vivo. The method, then:
(§1) The Aβ1-42, obtained from Tocris (Bristol, UK), was dissolved in sterile double-distilled pyrogenic-free water, as vehicle, to obtain a final concentration 4 μM [Colaianna M et al. 2010]. Mice were anesthetized with a solution (0.85 in ml/kg, i.p.), containing ketamine (Sigma Aldrich, Milan, Italy, 100 mg/10 ml), xylazine (Sigma Aldrich, Milan, Italy, 100 mg/10 ml) and acepromazine (prequillant, ATI Azienda Terapeutica Veterinaria Srl, 10 mg/10 ml) dissolved in saline solution. […] At the time of dissection, the correct needle track was assessed. […]
(§2) The total amount of proteins was measured in homogenates by using Pierce BCA Assay (Thermo Fisher Scientific, Cleveland, OH, USA). […] After HRP-conjugated specific antibody incubation, ECL reagent (Bio-Rad Laboratories Inc., Segrate (MI), Italy) was added to the immune complex and chemiluminescence was detected by ChemiDoc MP system (Bio-Rad Laboratories Inc., Segrate (MI), Italy). Optical densities of the bands were measured using Image J software (http://rsb.info.nih.gov/ij/ accessed on 15 Mar. 2021) and normalized against bands relative to -actin (1:5,000, Abcam, Cambridge, UK).

The subject of data set [5] is synaptophysin. Briefly: Synaptophysin in PFC and HIPP of mice treated with Aβ icv, Western blotting (FIG. 11). In kind it is in vivo. Conditions: after 7 days. The method, then:
(§3) The βCP, FE, βBA and HA4 influence on prefrontal and hippocampal synaptic plasticity was evaluated using anti-PSD-95, anti-synaptophysin, anti-CaMKII antibodies.
as §1, §2

Data set [6] deals with PSD-95. Description: PSD-95 in PFC and HIPP of mice treated with Aβ icv, Western blotting (FIG. 12). The class given is in vivo. The following applies: after 7 days. On the procedure:
as §3, §1, §2
For orientation: In western blotting, separated proteins are transferred to a membrane and probed.

In data set [7] the target is T1, catG (cathepsin G) (Homo sapiens, UniProt P08311).
T1 sequence (P08311 21-244): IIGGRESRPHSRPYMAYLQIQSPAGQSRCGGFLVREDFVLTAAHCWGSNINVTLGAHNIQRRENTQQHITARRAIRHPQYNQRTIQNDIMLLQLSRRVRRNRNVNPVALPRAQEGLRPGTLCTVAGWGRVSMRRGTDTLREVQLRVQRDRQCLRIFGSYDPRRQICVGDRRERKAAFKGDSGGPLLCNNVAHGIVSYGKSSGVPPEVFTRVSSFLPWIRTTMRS
The following applies: in vitro; read-out: IC50 catG (cathepsin G) inhibition; cited from earlier work.

The conditions of data set [8]: healthy volunteers, via os, cited from earlier work.
For data set [9] the following is noted: patients, via os; cited from earlier work.
For data set [10] the following is noted: mice, via os, cited from earlier work.

One may read the IC50 as the concentration that gives 50% inhibition.

Several values for one entry are separate records, joined by “and”; a condition that tells them apart may be missing. Identical values can stand only once. Like-named read-outs stand apart in the source and are kept apart here.

With `C[C@H]1[C@H](C)CC[C@]2(C)CC[C@]3(C)C(=CC[C@@H]4[C@@]5(C)CC[C@@H](O)[C@](C)(C(=O)O)[C@@H]5CC[C@]43C)[C@H]12` [βBA, β-boswellic acid], the Δos/plasma is 14.3 in data set [1]; 39 in [2]; 1.81 and 1.82 in data set [3] (sublingual administration); 2.97 in data set [3] (via os administration). For the same compound, the Δos/brain in data set [2] was 26. Also, in data set [2], the Δplasma/brain is 0.68. Further, the “increase of concentration in the brain over that in the blood” value in data set [2] (Table 1) is on record as 32%. Moreover, the “Maximum blood concentration via sublingual route” value in data set [3] (one person, 58 kg BW, 10 mg=172.4 ng/g, sublingual) turned out to be 95 ng/mL. Further, the “Maximum blood concentration via os” value in data set [3] (one person, 58 kg BW, 10 mg=172.4 ng/g, via os) was 52 ng/mL. Besides, in data set [3] (via os), the “reduction in blood concentration with respect to the administered dose” value is 67% and 70%. The NF-kB tissue concentration entry in data set [4] is “progressive removal of the pro-inflammatory effect induced by Aβ”. In addition, in [5], the synaptophysin tissue concentration result is recorded as “remove Ap-induced alterations”. In addition, the PSD-95 tissue concentration entry in data set [6] is recorded as “remove Aβ-induced alterations in a progressive manner”. Also, the IC50 in data set [7] is 800 nM. Moreover, the “concentration in the plasma” value in data set [8] (fasted conditions) is reported as 188.2 fasted ng/g o ng/ml; in [8] (hyperlipidic fed conditions) it was 1,120 hyperlipidic ng/g o ng/ml; in data set [9] it was 2,236 ng/g o ng/ml; in data set [10], 725 ng/g o ng/ml. For the same compound, in [10] (intestinal mucosa to blood), the “reduction of blood concentration compared to the dose introduced orally” value is “up to 40 times”. The “concentration in the brain” value in [10] is on record as 1,066 ng/g o ng/ml.

(Values after patent US20260115162A1, “COMPOSITION OR ASSOCIATION OF COMPOUNDS PREFERABLY FOR USE IN THE TREATMENT OF NERVOUS DISEASES IN PARTICULAR NEURODEGENERATIVE DISEASES, METHOD FOR THE PREPARATION OF SUCH COMPOSITION OR ASSOCIATION OF COMPOUNDS AND USES THEREOF” (PHARMACEUTICA SAN MARCO S.R.L., priority 2022, published 2026).)
